Assay results from PMC10247784, “Physiological activation of human and mouse bitter taste receptors by bile acids” (Communications Biology, 2023).

Biological target: T1, mouse Tas2r105 (Mus musculus, UniProt Q9JKT4)
T1 construct: expressed in transfected cells; host or cells: HEK293T-Gα16gust44
T1 sequence (Q9JKT4 1-300): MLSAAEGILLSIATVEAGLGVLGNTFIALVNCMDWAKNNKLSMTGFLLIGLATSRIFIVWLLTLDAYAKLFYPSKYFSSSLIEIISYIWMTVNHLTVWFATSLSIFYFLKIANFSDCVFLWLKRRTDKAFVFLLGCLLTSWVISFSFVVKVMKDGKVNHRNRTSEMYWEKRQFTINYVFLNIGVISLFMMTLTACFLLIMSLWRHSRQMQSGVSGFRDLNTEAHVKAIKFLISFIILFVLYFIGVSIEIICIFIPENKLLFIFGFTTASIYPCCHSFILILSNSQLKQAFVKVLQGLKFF
Assay: Calcium imaging assay (FLIPR), HEK293T-Gα16gust44 cells transfected with mouse Tas2r105
Assay type: cell-based
Method: This set of bile acids was chosen because of their commercial availability in high purities, their diversity within the class of bile acids and their previous detection and quantitation in human blood. Stock solutions were prepared in DMSO.
As basal growth medium for the HEK293T-Gα16gust44 cell line[17],[59] served Dulbecco’s modified eagle medium (DMEM) (Thermo Fisher Scientific, Darmstadt, Germany) supplemented with 10 % fetal bovine serum (Sigma-Aldrich, Steinheim, Germany), 2 mM L-glutamine (Sigma-Aldrich, Steinheim, Germany), 100 units/ml penicillin (Sigma Aldrich, Steinheim, Germany) and 100 µg/ml streptomycin (Sigma Aldrich, Steinheim, Germany). Growth conditions were 37 °C, 5 % CO2 and saturated air-humidity[60].
HEK293T-Gα16gust44 cells were seeded on poly-D-lysine (10 µg/ml) coated 96-well plates to reach a confluence of 40-60 % the next day. For transient transfection 150 ng of plasmid DNA containing the receptor of interest and 0.3 µl lipofectamine 2000 (Thermo Fisher Scientific, Darmstadt, Germany) per well were used and transfection took place according to the manual of lipofectamine 2000. […] The empty vector DNA (mock) was transfected as negative control[14],[41].
Cells were loaded using the calcium-sensitive fluorescent dye Fluo-4-AM (Abcam, Cambridge, Great Britain) in the presence of 2.5 mM probenecid (Sigma-Aldrich, Steinheim, Germany) the day after transfection[13],[41]. 1 h after loading, cells were washed with C1 buffer using a BioTek Cell Washer, incubated in the dark for half an hour and washed again. For automated agonist application and measurement of fluorescence changes, a FLIPR^TETRA device (Molecular Devices, San José, United States) was used. Viability of cells was tested by application of 100 nM Somatostatin 14 (Bachem, Bubendorf, Switzerland)[42].
Measured data were negative control corrected by subtracting the signal of the mock-transfected cells and exported to Microsoft Excel using the FLIPR software ScreenWorks 4.2. In Microsoft Excel software, standardization of maximum fluorescence intensities to the basal fluorescence and normalization to the buffer-only control was done to calculate the relative fluorescence changes (ΔF/F).
Initial screening experiments performed in duplicate wells were confirmed by at least one replication and representative traces were selected for display. All dose-response relationships were determined by three independent experiments (biological replicates) performed in duplicates (technical replicates). Threshold concentrations, defined as lowest substance concentrations leading to statistically significant elevated fluorescence changes in receptor-transfected cells compared with empty vector-transfected cells, were determined using SigmaPlot with Student’s t-test to evaluate statistical significance (p < 0.01).

What does the source list for C[C@H](CCC(=O)O)[C@H]1CC[C@H]2[C@@H]3CC[C@@H]4C[C@H](O)CC[C@]4(C)[C@H]3CC[C@]12C [Lithocholic Acid, lithocholic acid]?
RLU (Time 0 s): 0 RLU; RLU (Time 2 s): -19.9183 RLU; RLU (Time 4 s): 19.2865 RLU; RLU (Time 6 s): -6.64 RLU; RLU (Time 8 s): 9.805 RLU; RLU (Time 12 s): 17.7969 RLU; RLU (Time 14 s): 8.271 RLU; RLU (Time 16 s): -2.182 RLU; RLU (Time 18 s): 5.571 RLU; RLU (Time 18.781 s): 8.9 RLU; RLU (Time 20.781 s): -20.4639 RLU; RLU (Time 22.781 s): -20.313 RLU; RLU (Time 24.781 s): 13.8358 RLU; RLU (Time 26.781 s): 13.4767 RLU; RLU (Time 28.781 s): 5.266 RLU; RLU (Time 30.781 s): -9.837 RLU; RLU (Time 32.781 s): 8.574 RLU; RLU (Time 34.781 s): 27.1912 RLU; RLU (Time 36.781 s): 18.0239 RLU; RLU (Time 38.781 s): 6.659 RLU; RLU (Time 40.781 s): 53.7499 RLU; RLU (Time 42.781 s): 49.1517 RLU; RLU (Time 44.781 s): 47.3635 RLU; RLU (Time 46.781 s): 50.4831 RLU; RLU (Time 48.781 s): 74.4289 RLU; RLU (Time 50.781 s): 93.6056 RLU; RLU (Time 52.781 s): 63.4969 RLU; RLU (Time 54.781 s): 82.9174 RLU; RLU (Time 56.781 s): 91.8724 RLU; RLU (Time 58.781 s): 82.9428 RLU; RLU (Time 60.781 s): 110.605 RLU; RLU (Time 62.781 s): 104.538 RLU; RLU (Time 64.781 s): 112.529 RLU; RLU (Time 66.781 s): 137.104 RLU; RLU (Time 68.781 s): 132.36 RLU; RLU (Time 70.781 s): 132.904 RLU; RLU (Time 72.781 s): 132.041 RLU; RLU (Time 74.781 s): 144.653 RLU; RLU (Time 76.781 s): 172.509 RLU; RLU (Time 78.781 s): 142.279 RLU; RLU (Time 80.781 s): 151.243 RLU; RLU (Time 82.781 s): 167.63 RLU; RLU (Time 84.781 s): 195.966 RLU; RLU (Time 86.781 s): 203.204 RLU; RLU (Time 88.781 s): 204.712 RLU; RLU (Time 90.781 s): 215.59 RLU; RLU (Time 92.781 s): 209.022 RLU; RLU (Time 94.781 s): 228.864 RLU; RLU (Time 96.781 s): 184.288 RLU; RLU (Time 98.781 s): 227.541 RLU; RLU (Time 100.781 s): 248.863 RLU; RLU (Time 102.781 s): 222.595 RLU; RLU (Time 104.781 s): 217.502 RLU; RLU (Time 106.781 s): 225.971 RLU; RLU (Time 108.781 s): 244.356 RLU; RLU (Time 110.781 s): 261.979 RLU; RLU (Time 112.781 s): 241.216 RLU; RLU (Time 114.781 s): 243.367 RLU; RLU (Time 116.781 s): 246.887 RLU; RLU (Time 118.781 s): 257.566 RLU; RLU (Time 120.781 s): 260.092 RLU; RLU (Time 122.781 s): 284.505 RLU; RLU (Time 124.781 s): 270.165 RLU; RLU (Time 126.781 s): 278.83 RLU; RLU (Time 128.781 s): 309.382 RLU; RLU (Time 130.781 s): 309.382 RLU; RLU (Time 132.781 s): 310.252 RLU; RLU (Time 134.781 s): 282.326 RLU; RLU (Time 136.781 s): 279.582 RLU; RLU (Time 137.562 s): 296.261 RLU; RLU (Time 143.562 s): 310.291 RLU; RLU (Time 149.562 s): 291.585 RLU; RLU (Time 155.562 s): 301.792 RLU; RLU (Time 161.562 s): 299.079 RLU; RLU (Time 167.562 s): 303.398 RLU; RLU (Time 173.562 s): 315.378 RLU; RLU (Time 179.562 s): 314.187 RLU; RLU (Time 185.562 s): 308.746 RLU; RLU (Time 191.562 s): 287.017 RLU; RLU (Time 197.562 s): 315.242 RLU; RLU (Time 203.562 s): 299.639 RLU; RLU (Time 209.562 s): 295.067 RLU; RLU (Time 215.562 s): 316.647 RLU; RLU (Time 221.562 s): 272.857 RLU; RLU (Time 227.562 s): 314.132 RLU; RLU (Time 233.562 s): 269.771 RLU; RLU (Time 239.562 s): 270.901 RLU; RLU (Time 245.562 s): 241.175 RLU; RLU (Time 293.562 s): 236.399 RLU; RLU (Time 299.562 s): 209.696 RLU; RLU (Time 305.562 s): 212.529 RLU; RLU (Time 311.562 s): 180.625 RLU; RLU (Time 317.562 s): 178.726 RLU; RLU (Time 323.562 s): 162.84 RLU; RLU (Time 329.562 s): 185.237 RLU; RLU (Time 335.562 s): 178.412 RLU; RLU (Time 341.562 s): 163.583 RLU; RLU (Time 347.562 s): 148.887 RLU; RLU (Time 353.562 s): 153.613 RLU; RLU (Time 359.562 s): 155.912 RLU; Activation threshold concentration Tas2r105 (p < 0.01 vs empty vector): 3 µM
